# Entries after “also recorded” stand apart in the source; their conditions may differ.
# B1: CD45 recombinant protein: Human CD45 recombinant protein obtained from CALBIOCHEM, added at 20 U/mL (protein, UniProt P08575 26-1306, looked up)
# Receptor-type …: QSPTPSPTGLTTAKMPSVPLSSDPLPTHTTAFSPASTFERENDFSETTTSLSPDNTSTQVSPDSLDNASAFNTTGVSSVQTPHLPTHADSQTPSAGTDTQTFSGSAANAKLNPTPGSNAISDVPGERSTASTFPTDPVSPLTTTLSLAHHSSAALPARTSNTTITANTSDAYLNASETTTLSPSGSAVISTTTIATTPSKPTCDEKYANITVDYLYNKETKLFTAKLNVNENVECGNNTCTNNEVHNLTECKNASVSISHNSCTAPDKTLILDVPPGVEKFQLHDCTQVEKADTTICLKWKNIETFTCDTQNITYRFQCGNMIFDNKEIKLENLEPEHEYKCDSEILYNNHKFTNASKIIKTDFGSPGEPQIIFCRSEAAHQGVITWNPPQRSFHNFTLCYIKETEKDCLNLDKNLIKYDLQNLKPYTKYVLSLHAYIIAKVQRNGSAAMCHFTTKSAPPSQVWNMTVSMTSDNSMHVKCRPPRDRNGPHERYHLEVEAGNTLVRNESHKNCDFRVKDLQYSTDYTFKAYFHNGDYPGEPFILHHSTSYNSKALIAFLAFLIIVTSIALLVVLYKIYDLHKKRSCNLDEQQELVERDDEKQLMNVEPIHADILLETYKRKIADEGRLFLAEFQSIPRVFSKFPIKEARKPFNQNKNRYVDILPYDYNRVELSEINGDAGSNYINASYIDGFKEPRKYIAAQGPRDETVDDFWRMIWEQKATVIVMVTRCEEGNRNKCAEYWPSMEEGTRAFGDVVVKINQHKRCPDYIIQKLNIVNKKEKATGREVTHIQFTSWPDHGVPEDPHLLLKLRRRVNAFSNFFSGPIVVHCSAGVGRTGTYIGIDAMLEGLEAENKVDVYGYVVKLRRQRCLMVQVEAQYILIHQALVEYNQFGETEVNLSELHPYLHNMKKRDPPSEPSPLEAEFQRLPSYRSWRTQHIGNQEENKSKNRNSNVIPYDYNRVPLKHELEMSKESEHDSDESSDDDSDSEEPSKYINASFIMSYWKPEVMIAAQGPLKETIGDFWQMIFQRKVKVIVMLTELKHGDQEICAQYWGEGKQTYGDIEVDLKDTDKSSTYTLRVFELRHSKRKDSRTVYQYQYTNWSVEQLPAEPKELISMIQVVKQKLPQKNSSEGNKHHKSTPLLIHCRDGSQQTGIFCALLNLLESAETEEVVDIFQVVKALRKARPGMVSTFEQYQFLYDVIASTYPAQNGQVKKNNHQEDKIEFDNEVDKVKQDANCVNPLGAPEKLPEAKEQAEGSEPTSGTEGPEHSVNGPASPALNQGS
# Key:
# [1] = test system: primary cultured microglial cells; test: TNF-α ELISA on primary cultured microglial cells; type: cell-based, mouse; conditions: for TNF-α production (microglial activation): phosphatase inhibitor co-treated with Aβ peptides (1000 nM), wild-type microglia, 12 hours; for TNF-α release induced by phen and Aβ peptides: microglia activated with phen (5 mM) and Aβ peptides (1000 nM), 12 h, effect of added agent
# Protocol: (§1) Breeding pairs of BALB/c and CD45 deficient (C57BL/601aHsd-Ptprc) mice were purchased from Jackson Laboratory (Bar Harbor, Maine) and housed in the animal facility at the University of South Florida Health Science Center. Tg APPSW mice are the 2576 line backcrossed to C57B6/SJL as previously described (Hsiao et al., 1995; Hsiao et al., 1996). Murine primary culture microglia were isolated from mouse cerebral cortices and were grown in RPMI medium supplemented with 5% fetal calf serum, 2 mM glutamine, 100 U/mL penicillin, […] streptomycin and 0.05 mM 2-mercaptoethanol according to previously described methods (Chao et al., 1992). Briefly, cerebral cortices from newborn mice (1-2 days old) were isolated under sterile conditions and were kept at 4 degrees Centigrade prior to mechanical dissociation. Cells were plated in […] flasks and complete medium was added. Primary cultures were kept for 14 days so that only glial cells remained, and microglia were isolated by shaking flasks at 200 rpm in a LabLine TM Incubator-Shaker. More than 98% of these glial cells stained positive for Mac-1 (CD11b /CD18; Boehringer Mannheim Biochemicals, Indianapolis, Ind.). Mouse primary culture neuronal cells were prepared as previously described (Chao et al., 1992). Briefly, cerebral cortices were isolated from BALB/c mouse embryos, between 15 to 17 days in utero, and cortices were mechanically dissociated in trypsin ([…]) following incubation for 15 min at 37° C. Cells were collected following centrifugation at 1200 rpm and resuspended in DMEM (GIBCO, Gaithersburg, Md.) supplemented with 10% fetal calf serum, 10% horse serum, uridine (33.6 mg/mL, Sigma Chemical-Co., St. Louis, Mo.) and fluorodeoxyuridine (1 3.6 mg/mL, Sigma) and plated in 24 well tissue-culture plates at 2.5×1 O′ cells/well after collagen-coating the plates. After 10 days in vitro, cells were passed in preparation for subsequent experiments. […] To verify CD45 deficiency status, CD45 expression in microglia isolated from CD45 -deficient mice was determined by FACS (fluorescence activated cell sorter) analysis as previously described (Tan et al., 1999a), and CD45 was undetectable in these cells (data not shown).
# (§2) Primary cultured microglial cells were plated in 24-well tissue-culture plates (Costar, Cambridge, Mass.) at 5×10^4 cells/well and stimulated for 12 h with phen ([…]), Aβ peptides (1000 nM) or phen/Aβ peptides in the presence or absence of anti-CD45 antibody (1:200) or PD98059 ([…]) pre-treatment for 1 hour, or appropriate controls. […] The Bio-Rad protein assay (Bio-Rad Laboratories, Hercules, Calif.) was performed to measure total cellular protein from each of the cell groups under consideration just prior to quantification of cytokine release by ELISA or NO secretion by NO assay.
# [2] = test system: primary cultured microglial cells; test: Nitric oxide (NO) release assay on primary cultured microglial cells; type: cell-based, mouse; conditions: for NO release (microglial activation): phosphatase inhibitor co-treated with Aβ peptides (1000 nM), wild-type microglia, 12 hours; for NO release induced by phen and Aβ peptides: microglia activated with phen (5 mM) and Aβ peptides (1000 nM), 12 h, effect of added agent
# Protocol: as §1, §2
# [3] = test system: p44/22 MAPK; test: Immune complex kinase assay (phospho-Elk 1) in microglial cell lysates; type: cell-based, mouse; conditions: microglia co-treated with phen and Aβ peptides; effect of added agent
# Protocol: Primary culture microglial cells were seeded in 6-well tissue-culture plates at 8×10^5 per well. Thirty minutes following co-treatment with phen and Aβ peptides in the presence or absence of anti-CD45 antibody or appropriate controls, microglial cells were lysed in ice-cold lysis buffer (as described above). Total cellular protein was quantified with the BioRad protein assay, and an aliquot of […] of protein for each treatment condition was separated by SDS-PAGE. p44/22 MAPK activity was determined using the p44/22 MAP-Kinase Assay Kit (New England BioLabs, Beverly, Mass.) in strict accordance with the manufacturer's instruction. The phosphorylated form of the Elk 1 p44/22 MAPK fusion protein was visualized by Western immunoblotting (as described above) using a specific antibody for phosphorylated Elk 1 supplied with the kit.
# [4] = test system: p44/22 MAPK; test: Western immunoblotting of phosphorylated/total p44/22 MAPK in microglial cell lysates; type: cell-based, mouse; conditions: microglia co-treated with phen and Aβ peptides; effect of added agent
# Protocol: Murine primary culture microglia were plated in 6 well tissue-culture plates at a density of 8×10^5 cells/well. These cells were incubated for 30 min with or without phen ([…]) and Aβ peptides (1000 nM) in the presence or absence of anti-CD45 or control antibodies (1:200 dilution for each) or PD98059 ([…]) pre-treatment for 1 hour, or appropriate controls. Immediately following culturing, microglia were washed in ice-cold phosphate buffered saline (PBS) 3×, scraped into ice-cold PBS, and lysed in an ice-cold lysis buffer containing 20 mM Tris (pH 7.5), 150 mM NaCl, 1 mM EDTA, 1 mM EGTA, 1% Triton X-100, 2.5 mM sodium pyrophosphate, 1 mM b-glycerolphosphate, 1 mM Na3VO4, 1 μg/mL leupeptin, and 1 mM PMSF. After incubation for 30 min. on ice, samples were centrifuged at high speed for 15 minutes, and supernatants were collected. Total protein content was estimated using the Bio-Rad protein assay. An aliquot corresponding to 50 μg of total protein of each sample was separated by SDS-PAGE and transferred electrophoretically to Hy-bond PVDF membranes. Non-specific antibody binding was blocked with 5% non-fat dry milk for 1 h at room temperature in TBS (20 mM Tris, 500 mM NaCl, pH 7.5). […] Densiometric analysis was preformed for all blots using the Fluor-S Multimager™ with Quantity One™ software (Bio-Rad, Calif.).
# [5] = test system: Tg APPSW mice; conditions: Tg APPSW mice given ibuprofen; cited from earlier work
Molecule,TNF-α production (microglial activation) [1],NO release (microglial activation) [2],TNF-α release induced by phen and Aβ peptides [1],NO release induced by phen and Aβ peptides [2],further results
[Na+].[Na+].[Na+].[O]=[V]([O-])([O-])[O-] [sodium orthovanadate],results similar to phen and Aβ peptide co-treatment,results similar to phen and Aβ peptide co-treatment,,,
COc1cccc(-c2cc(=O)c3ccccc3o2)c1N [PD98059],,,markedly decreased; also recorded: statistically interactive blockade,markedly decreased; also recorded: statistically interactive blockade,phen and Aβ-mediated activity of p44/22 MAPK [3]: significant reduction; phen and Aβ-mediated phosphorylation of p44/22 MAPK [4]: significant reduction
CC(C)Cc1ccc(C(C)C(=O)O)cc1 (centres unmarked) [ibuprofen],,,,,"Aβ deposits, astrocytosis, and dystrophic neurites [5]: reduction"
C=C1[C@@H](O)[C@@H]2O[C@]3(CC[C@H](/C=C/[C@@H](C)[C@@H]4CC(C)=C[C@@]5(O[C@H](C[C@@](C)(O)C(=O)O)CC[C@H]5O)O4)O3)CC[C@H]2O[C@@H]1[C@@H](O)C[C@H](C)[C@H]1O[C@@]2(CCCCO2)CC[C@H]1C [okadaic acid],not detectable,not detectable,,,
B1,,,markedly decreased,markedly decreased,
